Laboratory results published in US9943599B2, “Therapeutic applications of calcium electroporation to effectively induce tumor necrosis” (Herlev Hospital, priority 2011, dated 2018).

System: B16 (murine melanoma) tumors
Test: Fraction of necrosis after calcium electroporation, B16 tumors
Format: in vivo, NMRI-Foxn1^nu mice
Details: 168 mM CaCl2, half tumor volume, first days after treatment
Procedure: LPB, a murine sarcoma cell line, B16, a murine malignant melanoma cell line, MDA-MB231, human a breast cancer cell line, HT29, a human colon cancer cell line, and SW780, a human bladder cancer cell line were used for the in vivo experiment. The cells were tested by rapid MAP27 panel (Taconic, Hudson N.Y.) before use without signs of infection. 2×10^5 cells (B16), 8×10^5 cells (LPB), 2.5×10^6 cells (MDA-MB231), and 5×10^6 cells (HT29 and SW780) in 100 μl PBS were injected subcutaneously in the flank of NMRI-Foxn1^nu mice (Harlan, Indianapolis, Ind.) that were 9-11 weeks old. Mice were randomised at a tumor volume above 85 mm^3 and tumors were treated with injection of isotonic calcium-chloride solution (168 mM CaCI2) and electroporation (8 pulses of 1.0 kv/cm for 100 μs and a frequency of 1 Hz) using a 6 mm plate electrode and a square wave electroporator (CLINIPORATOR®, IGEA, Modena, Italy). Tumor volume was calculated as ab^2n/6, where a is the largest diameter and b is the largest diameter perpendicular to a. The injected volume was half of the tumor volume. […] The fraction of necrosis within the tumor was estimated from HE-sections by stereological point counting using a light microscope, evaluated by a pathologist, blinded with respect to treatment status.
The difference in fraction of necrosis at different time after treatment was assessed using student's t-test.

SMILES: [Ca+2].[Cl-].[Cl-] [calcium chloride]
- fraction of necrosis in tumors, course: progressive necrosis
